The supplement of paper PMC11208160

Test: recombinant barcode read abundance after kanamycin selection (control-corrected) (log10(CPM+1)); higher = more efficient recombination; sequences stand for … in AGTGCAGAGAAAATCGGCCAGTTTTCTCTGCCTGCAGTCCGCATGCCGT…ATTTATGCAGCGGACTGCCTTTCTCCCAAAGTGATAAACCGGACAGTATCATGGACCGGTTTTCCCGGTAATCCGTATTTGCAAGGTTGGTTTCACT; site = the 11-nt target
Procedure, shortened: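 A vector carrying a T7-inducible recombinase and the last 73 bp of the bridge RNA received, by Gibson cloning, oligos encoding a promoter, target, barcode and the first 104 bridge RNA bases under J23119. The pooled constructs entered E. coli together with a donor plasmid by electroporation. Selection used chloramphenicol/ampicillin/kanamycin with 0.1 mM IPTG, with chloramphenicol/ampicillin LB agar as the control, each in two replicates. Recombination efficiency is the averaged, control-corrected counts-per-million of barcodes at recombinant junctions, reported as log10(CPM+1).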

Sequence	recombinant barcode read abundance (log10)
ATGTCCCGCTGGGTTCTAACCTGTTGCTCAG [ATGTCCCCTGA_LTGcore_GC_RTGcore_CT] (site ATGTCCCCTGA) (LTG core: GC, RTG core: CT)	0
ATGTCCCGGTGGGTTCTAACCTGTTGCTCCC [ATGTCCCCTGA_LTGcore_GG_RTGcore_GG] (site ATGTCCCCTGA) (LTG core: GG, RTG core: GG)	0.109
CATATTAAATGGGTTCTAACCTGTTGCCTTT [CATATTACTAG_LTGcore_AA_RTGcore_AA] (site CATATTACTAG) (LTG core: AA, RTG core: AA)	1.4
CATATTAACTGGGTTCTAACCTGTTGCCTGT [CATATTACTAG_LTGcore_AC_RTGcore_AC] (site CATATTACTAG) (LTG core: AC, RTG core: AC)	0.119
CATATTAAGTGGGTTCTAACCTGTTGCCTAG [CATATTACTAG_LTGcore_AG_RTGcore_CT] (site CATATTACTAG) (LTG core: AG, RTG core: CT)	0.0215
CATATTAATTGGGTTCTAACCTGTTGCCTAT [CATATTACTAG_LTGcore_AT_RTGcore_AT] (site CATATTACTAG) (LTG core: AT, RTG core: AT)	0.0885
CATATTACCTGGGTTCTAACCTGTTGCCTGG [CATATTACTAG_LTGcore_CC_RTGcore_CC] (site CATATTACTAG) (LTG core: CC, RTG core: CC)	0.638
CATATTACGTGGGTTCTAACCTGTTGCCTCG [CATATTACTAG_LTGcore_CG_RTGcore_CG] (site CATATTACTAG) (LTG core: CG, RTG core: CG)	0.443
CATATTACTTGGGTTCTAACCTGTTGCCTCG [CATATTACTAG_LTGcore_CT_RTGcore_CG] (site CATATTACTAG) (LTG core: CT, RTG core: CG)	0.0475
CATATTACTTGGGTTCTAACCTGTTGCCTGA [CATATTACTAG_LTGcore_CT_RTGcore_TC] (site CATATTACTAG) (LTG core: CT, RTG core: TC)	0.138
CATATTACTTGGGTTCTAACCTGTTGCCTGG [CATATTACTAG_LTGcore_CT_RTGcore_CC] (site CATATTACTAG) (LTG core: CT, RTG core: CC)	0.0433
CATATTATGTGGGTTCTAACCTGTTGCCTAG [CATATTACTAG_LTGcore_TG_RTGcore_CT] (site CATATTACTAG) (LTG core: TG, RTG core: CT)	0.0521
CGAGCCCAATGGGTTCTAACCTGTTGCTGAG [CGAGCCCCTCA_LTGcore_AA_RTGcore_CT] (site CGAGCCCCTCA) (LTG core: AA, RTG core: CT)	0.0167
CGAGCCCACTGGGTTCTAACCTGTTGCTGAG [CGAGCCCCTCA_LTGcore_AC_RTGcore_CT] (site CGAGCCCCTCA) (LTG core: AC, RTG core: CT)	0.0532
CGAGCCCAGTGGGTTCTAACCTGTTGCTGAG [CGAGCCCCTCA_LTGcore_AG_RTGcore_CT] (site CGAGCCCCTCA) (LTG core: AG, RTG core: CT)	0.139
CGAGCCCATTGGGTTCTAACCTGTTGCTGAT [CGAGCCCCTCA_LTGcore_AT_RTGcore_AT] (site CGAGCCCCTCA) (LTG core: AT, RTG core: AT)	0.0704
CGAGCCCCCTGGGTTCTAACCTGTTGCTGAG [CGAGCCCCTCA_LTGcore_CC_RTGcore_CT] (site CGAGCCCCTCA) (LTG core: CC, RTG core: CT)	0.805

Sequence	recombinant barcode read abundance (log10)
CGAGCCCCTTGGGTTCTAACCTGTTGCTGAG [CGAGCCCCTCA_LTGcore_CT_RTGcore_CT] (site CGAGCCCCTCA) (LTG core: CT, RTG core: CT)	2.65
CGAGCCCCTTGGGTTCTAACCTGTTGCTGGG [CGAGCCCCTCA_LTGcore_CT_RTGcore_CC] (site CGAGCCCCTCA) (LTG core: CT, RTG core: CC)	0.164
CGAGCCCCTTGGGTTCTAACCTGTTGCTGTC [CGAGCCCCTCA_LTGcore_CT_RTGcore_GA] (site CGAGCCCCTCA) (LTG core: CT, RTG core: GA)	0.248
CGAGCCCCTTGGGTTCTAACCTGTTGCTGTT [CGAGCCCCTCA_LTGcore_CT_RTGcore_AA] (site CGAGCCCCTCA) (LTG core: CT, RTG core: AA)	0.266
CGAGCCCGATGGGTTCTAACCTGTTGCTGTC [CGAGCCCCTCA_LTGcore_GA_RTGcore_GA] (site CGAGCCCCTCA) (LTG core: GA, RTG core: GA)	0.188
CGAGCCCTGTGGGTTCTAACCTGTTGCTGCA [CGAGCCCCTCA_LTGcore_TG_RTGcore_TG] (site CGAGCCCCTCA) (LTG core: TG, RTG core: TG)	0.646
CGCGCCCCATGGGTTCTAACCTGTTGCGGAG [CGCGCCCCTCC_LTGcore_CA_RTGcore_CT] (site CGCGCCCCTCC) (LTG core: CA, RTG core: CT)	0.303
CGCGCCCCATGGGTTCTAACCTGTTGCGGTG [CGCGCCCCTCC_LTGcore_CA_RTGcore_CA] (site CGCGCCCCTCC) (LTG core: CA, RTG core: CA)	0.162
CGCGCCCCCTGGGTTCTAACCTGTTGCGGGG [CGCGCCCCTCC_LTGcore_CC_RTGcore_CC] (site CGCGCCCCTCC) (LTG core: CC, RTG core: CC)	0.117
CGCGCCCCGTGGGTTCTAACCTGTTGCGGAG [CGCGCCCCTCC_LTGcore_CG_RTGcore_CT] (site CGCGCCCCTCC) (LTG core: CG, RTG core: CT)	0.167
CGCGCCCCGTGGGTTCTAACCTGTTGCGGCG [CGCGCCCCTCC_LTGcore_CG_RTGcore_CG] (site CGCGCCCCTCC) (LTG core: CG, RTG core: CG)	0
CGCGCCCCTTGGGTTCTAACCTGTTGCGGAA [CGCGCCCCTCC_LTGcore_CT_RTGcore_TT] (site CGCGCCCCTCC) (LTG core: CT, RTG core: TT)	0.319
CGCGCCCCTTGGGTTCTAACCTGTTGCGGCC [CGCGCCCCTCC_LTGcore_CT_RTGcore_GG] (site CGCGCCCCTCC) (LTG core: CT, RTG core: GG)	0.215
CGCGCCCCTTGGGTTCTAACCTGTTGCGGGG [CGCGCCCCTCC_LTGcore_CT_RTGcore_CC] (site CGCGCCCCTCC) (LTG core: CT, RTG core: CC)	0.105
CGCGCCCGGTGGGTTCTAACCTGTTGCGGCC [CGCGCCCCTCC_LTGcore_GG_RTGcore_GG] (site CGCGCCCCTCC) (LTG core: GG, RTG core: GG)	0.307
CGCGCCCTGTGGGTTCTAACCTGTTGCGGAG [CGCGCCCCTCC_LTGcore_TG_RTGcore_CT] (site CGCGCCCCTCC) (LTG core: TG, RTG core: CT)	0.301
CGGTCCCCTTGGGTTCTAACCTGTTGCCACC [CGGTCCCCTTG_LTGcore_CT_RTGcore_GG] (site CGGTCCCCTTG) (LTG core: CT, RTG core: GG)	0.18
